# Data published in patent publication US8586609B2, “Aryl-substituted polycyclic amines, method for the production thereof, and use thereof as a medicament” (Sanofi-Aventis Deutschland GmbH, priority 2004, dated 2013).
# Tested on: female NMRI mice
# Assay: Anorectic effect: reduction in cumulative milk consumption of treated compared with control animals
# Type: in vivo
# Conditions: oral dose 30 mg/kg by gavage; female NMRI mice after withdrawal of feed for 17 hours; condensed milk consumption determined every half hour for 7 hours
# Protocol: The anorectic effect was tested on female NMRI mice. After withdrawal of feed for 17 hours, the test product was administered by gavage. The animals were housed singly with free access to drinking water and were offered condensed milk 30 minutes after administration of the product. The condensed milk consumption was determined every half hour for 7 hours, and the general wellbeing of the animals was observed. The measured milk consumption was compared with the vehicle-treated control animals.
compound,measurement,value
"CN1C[C@H]2CCN(c3ccc(NC(=O)N4CCC(c5ccc(Cl)cc5)CC4)cc3)[C@H]2C1 (stereo in doubt) [Example 9, 4-(4-Chlorophenyl)piperidine-1-carboxylic acid [4-(5-methylhexahydropyrrolo[3,4-b]pyrrol-1-yl)phenyl]amide]",Reduction in cumulative milk consumption as % of the control,82 % of the control
